Drawing on patent publication US12371454B2, “Cyclic peptide compound having Kras inhibitory action” (priority 2019, dated 2025), this text covers IC50 for 16 compounds.

This test deals with T1, Kras and SOS1 (biotin-tagged human Kras loaded with GDP, His-tagged human SOS1) (Homo sapiens, UniProt P01116, G12D).
T1 construct: made in house; host or cells: E. coli (stated for Kras only)
Put plainly: Protein-protein interaction inhibition between Kras and SOS1 (KrasGl2D-SOS PPI) using AlphaScreen. To be noted: AlphaScreen; biotin-tagged human Kras loaded with GDP, His-tagged human SOS1; read-out: KRAS G12D-SOS PPI IC50. The test is classed as binding. The essentials:
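Energy transfer from nickel-chelate donor beads bound to His-SOS1 to streptavidin acceptor beads bound to biotin-Kras, expressed in E. coli and loaded with GDP after purification, was monitored. Donors were excited at 680 nm; singlet oxygen reaching acceptors gave emission read at 520-620 nm.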
Background: Bead proximity is the source of the signal in Alpha formats.

Starred links: 1 amine or outer side, 2 acyl side, 3 side chain; linkers in the order of their positions; H or OH if unused. Positions of bridges follow the written chain, without caps; N, C: chain ends. Non-standard residues stand in square brackets, D forms with d. Residues, ends and D or L forms follow the SMILES beside them. *: point of attachment. NMeAbu(3,3-F2-piperidino) = CN[C@@H](CCN1CCCC(F)(F)C1)C(=O)O; hPhe(3-Cl-4-CF3) = N[C@@H](CCc1ccc(C(F)(F)F)c(Cl)c1)C(=O)O; hPhe(3-F,4-CF3) = N[C@@H](CCc1ccc(C(F)(F)F)c(F)c1)C(=O)O; hPhe(4-CF3) = N[C@@H](CCc1ccc(C(F)(F)F)cc1)C(=O)O; NMePhe(4-Cl) = CN[C@@H](Cc1ccc(Cl)cc1)C(=O)O; NMePhe(4-Me) = CN[C@@H](Cc1ccc(C)cc1)C(=O)O; X33 = Cc1ccc(CC[C@H](N[*:1])C(=O)[*:2])cc1; NMedβ3hAla = C[C@H](CC(=O)[*:2])N(C)[*:1]; NMeGly(cPent) = CN[C@H](C(=O)O)C1CCCC1; NMeCha = CN[C@@H](CC1CCCCC1)C(=O)O; NMeChg = CN[C@H](C(=O)O)C1CCCCC1; NMeF = CN[C@@H](Cc1ccccc1)C(=O)O; NMeI = CC[C@H](C)[C@H](NC)C(=O)O; NMeD = CN[C@@H](CC(=O)O)C(=O)O; NMeL = CN[C@@H](CC(C)C)C(=O)O; NMeNva = CCC[C@H](NC)C(=O)O; NMeV = CN[C@H](C(=O)O)C(C)C; d(β3hA) = C[C@@H](N)CC(=O)O; NMeAbu = CC[C@H](NC)C(=O)O; Iva = CC[C@](C)(N)C(=O)O; NMeA = CN[C@@H](C)C(=O)O; Piperidide = C1CCN(*)CC1; Pyrrolidide = C1CCN(*)C1; dNMeA = CN[C@H](C)C(=O)O; Ac5c = NC1(C(=O)O)CCCC1; Aze = O=C(O)[C@@H]1CCN1; Thp = NC1(C(=O)O)CCOCC1; NPrGly = CCCNCC(=O)O; Sar = CNCC(=O)O

T1 sequence (P01116 1-188 isoform P01116-2 G12D): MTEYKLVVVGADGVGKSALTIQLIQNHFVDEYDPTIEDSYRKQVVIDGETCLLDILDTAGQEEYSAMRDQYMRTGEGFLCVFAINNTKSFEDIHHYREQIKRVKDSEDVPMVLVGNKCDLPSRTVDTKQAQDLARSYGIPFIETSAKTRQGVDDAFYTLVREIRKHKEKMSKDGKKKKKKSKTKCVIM

As a reminder, the IC50 is the concentration that gives 50% inhibition. On to `CC[C@H](C)[C@@H]1NC(=O)[C@H](CC(C)C)N(C)C(=O)C[C@@H](C(=O)N(C)C)N(C)C(=O)[C@H]([C@@H](C)CC)N(C)C(=O)C2(CCCC2)NC(=O)[C@H](C)N(C)C(=O)[C@H](CCc2ccc(C(F)(F)F)c(Cl)c2)NC(=O)CN(C)C(=O)[C@H](Cc2ccc(C)cc2)N(C)C(=O)[C@@H]2CCN2C(=O)[C@H](C)N(C)C1=O` [Compound 378, (3S,6S,9S,13S,16S,22S,25S,31S,34S)-25-[2-[3-chloro-4-(trifluoromethyl)phenyl]ethyl]-9-isobutyl-N,N,3,4,10,14,17,22,23,29,32-undecamethyl-6,16-bis[(1S)-1-methylpropyl]-2,5,8,11,15,18,21,24,27,30,33-undecaoxo-31-(p-tolylmethyl)spiro[1,4,7,10,14,17,20,23,26,29,32-undecazabicyclo[32.2.0]hexatriacontane-19,1′-cyclopentane]-13-carboxamide] ([NMeL]I[NMeA][Aze][NMePhe(4-Me)][Sar][hPhe(3-Cl-4-CF3)][NMeA][Ac5c][NMeI][NMeD]-NMe2; lactam N-11), for which the IC50 turned out to be 0.68 nM. For `CC[C@H](C)[C@@H]1NC(=O)[C@H](CC(C)C)N(C)C(=O)C[C@@H](C(=O)N(C)C)N(C)C(=O)[C@H]([C@@H](C)CC)N(C)C(=O)[C@H](C(C)C)NC(=O)[C@H](CCN2CCCC(F)(F)C2)N(C)C(=O)[C@H](CCc2ccc(C(F)(F)F)c(Cl)c2)NC(=O)CN(C)C(=O)[C@H](Cc2ccc(C)cc2)N(C)C(=O)[C@@H]2CCN2C(=O)[C@H](C)N(C)C1=O` [Compound 379] ([NMeL]I[NMeA][Aze][NMePhe(4-Me)][Sar][hPhe(3-Cl-4-CF3)][NMeAbu(3,3-F2-piperidino)]V[NMeI][NMeD]-NMe2; lactam N-11) the value was 13 nM. With `CC[C@H](C)[C@@H]1NC(=O)[C@H](C)N(C)C(=O)C[C@@H](C(=O)N2CCCCC2)N(C)C(=O)[C@H](C(C)C)N(C)C(=O)C2(CCCC2)NC(=O)[C@@H]2CCCN2C(=O)[C@H](CCc2ccc(C(F)(F)F)c(Cl)c2)NC(=O)[C@@H](C)N(C)C(=O)[C@H](CC2CCCCC2)N(C)C(=O)CN(C)C(=O)CN(C)C1=O` [Compound 380] ([NMeA]I[Sar][Sar][NMeCha][dNMeA][hPhe(3-Cl-4-CF3)]P[Ac5c][NMeV][NMeD]-Piperidide; lactam N-11), the IC50 is 5.6 nM. With `CC[C@H](C)[C@@H]1NC(=O)[C@H](CC(C)C)N(C)C(=O)C[C@@H](C(=O)N(C)C)N(C)C(=O)[C@H]([C@@H](C)CC)N(C)C(=O)[C@H](C)NC(=O)[C@@H](C)NC(=O)[C@H](CCc2ccc(C(F)(F)F)c(Cl)c2)NC(=O)CN(C)C(=O)[C@H](Cc2ccc(C)cc2)N(C)C(=O)[C@@H]2CCN2C(=O)[C@H](C)N(C)C1=O` [Compound 382] ([NMeL]I[NMeA][Aze][NMePhe(4-Me)][Sar][hPhe(3-Cl-4-CF3)][dA]A[NMeI][NMeD]-NMe2; lactam N-11), the IC50 was found to be 35 nM. With `CC[C@H](C)[C@@H]1NC(=O)[C@H](C)N(C)C(=O)C[C@@H](C)NC(=O)[C@H](CC(C)C)N(C)C(=O)[C@H](CC2CCCCC2)N(C)C(=O)[C@@H]2CCCN2C(=O)[C@H](CCc2ccc(C(F)(F)F)cc2)NC(=O)CN(C)C(=O)[C@H](Cc2ccc(Cl)cc2)N(C)C(=O)CN(C)C(=O)CN(C)C1=O` [Compound 383] (cyclo(I[Sar][Sar][NMePhe(4-Cl)][Sar][hPhe(4-CF3)]P[NMeCha][NMeL][d(β3hA)][NMeA])), the IC50 worked out at 260 nM. Turning to `CC[C@H](C)[C@@H]1NC(=O)[C@H](CC(C)C)N(C)C(=O)C[C@@H](C(=O)N(C)C)N(C)C(=O)[C@H](C2CCCC2)N(C)C(=O)[C@H](C(C)C)NC(=O)[C@H](CCN2CCCC(F)(F)C2)N(C)C(=O)[C@H](CCc2ccc(C(F)(F)F)c(Cl)c2)NC(=O)CN(C)C(=O)[C@H](CC2CCCCC2)N(C)C(=O)[C@@H]2CCN2C(=O)[C@H](C)N(C)C1=O` [Compound 389] ([NMeL]I[NMeA][Aze][NMeCha][Sar][hPhe(3-Cl-4-CF3)][NMeAbu(3,3-F2-piperidino)]V[NMeGly(cPent)][NMeD]-NMe2; lactam N-11), the IC50 was 45 nM. Regarding `CCC[C@H]1C(=O)N[C@@H]([C@@H](C)CC)C(=O)N(C)[C@@H](C)C(=O)N2CC[C@H]2C(=O)N(C)[C@@H](CC2CCCCC2)C(=O)N(C)CC(=O)N[C@@H](CCc2ccc(C(F)(F)F)c(Cl)c2)C(=O)N2CCC[C@H]2C(=O)NC2(CCCC2)C(=O)N(C)[C@@H](C2CCCC2)C(=O)N(C)[C@H](C(=O)N2CCCCC2)CC(=O)N1C` [Compound 391, (5S,8S,11S,15S,18S,23aS,29S,35S,37aS)-8-((S)-sec-butyl)-29-(3-chloro-4-(trifluoromethyl)phenethyl)-35-(cyclohexylmethyl)-18-cyclopentyl-5,6,12,16,19,33,36-heptamethyl-15-(piperidine-1-carbonyl)-11-propyldocosahydro-2H,4H-spiro[azeto[2,1-u]pyrrolo[2,1-i][1,4,7,10,13,16,19,22,25,28,31]undecaazacyclotetratriacontine-21,1′-cyclopentan]-4,7,10,13,17,20,23,28,31,34,37(14H,22H)-undecaone] ([NMeNva]I[NMeA][Aze][NMeCha][Sar][hPhe(3-Cl-4-CF3)]P[Ac5c][NMeGly(cPent)][NMeD]-Piperidide; lactam N-11), the IC50 was found to be 0.4 nM. With `CCC[C@H]1C(=O)NC2(CCCC2)C(=O)N(C)[C@@H](C2CCCCC2)C(=O)N(C)[C@H](C(=O)N2CCCCC2)CC(=O)N(C)[C@@H](CC(C)C)C(=O)N[C@@H]([C@@H](C)CC)C(=O)N(C)CC(=O)N2CCC[C@H]2C(=O)N(C)[C@@H](CC2CCCCC2)C(=O)N(C)CC(=O)N[C@@H](CCc2ccc(C(F)(F)F)c(Cl)c2)C(=O)N1C` [Compound 392] ([NMeL]I[Sar]P[NMeCha][Sar][hPhe(3-Cl-4-CF3)][NMeNva][Ac5c][NMeChg][NMeD]-Piperidide; lactam N-11), the concentration for half-maximal inhibition (IC50) came out at 12 nM.

On to `CC[C@H](C)[C@@H]1NC(=O)[C@H](CC(C)C)N(C)C(=O)C[C@@H](C(=O)N2CCCCC2)N(C)C(=O)[C@H](C(C)C)N(C)C(=O)[C@](C)(CC)NC(=O)[C@@H]2CCCN2C(=O)[C@H](CCc2ccc(C(F)(F)F)c(Cl)c2)NC(=O)CN(C)C(=O)[C@H](CC2CCCCC2)N(C)C(=O)[C@@H]2CCN2C(=O)[C@H](C)N(C)C1=O` [Compound 394] ([NMeL]I[NMeA][Aze][NMeCha][Sar][hPhe(3-Cl-4-CF3)]P[Iva][NMeV][NMeD]-Piperidide; lactam N-11), for which the IC50 is 13 nM. As to `CC[C@H](C)[C@@H]1NC(=O)[C@H](C)N(C)C(=O)C[C@@H](C)NC(=O)[C@H](C2CCCC2)N(C)C(=O)C2(CCCC2)NC(=O)[C@@H]2CCCN2C(=O)[C@H](CCc2ccc(C(F)(F)F)c(Cl)c2)NC(=O)[C@@H](C)N(C)C(=O)[C@H](C)N(C)C(=O)[C@@H]2CCN2C(=O)[C@H](C)N(C)C1=O` [Compound 396] (cyclo([Ac5c][NMeGly(cPent)][d(β3hA)][NMeA]I[NMeA][Aze][NMeA][dNMeA][hPhe(3-Cl-4-CF3)]P)), the concentration for half-maximal inhibition (IC50) turned out to be 220 nM. On to `CC[C@H](C)[C@@H]1NC(=O)[C@H](C)N(C)C(=O)C[C@@H](C(=O)N2CCCC2)NC(=O)[C@H](CC(C)C)N(C)C(=O)[C@H](Cc2ccccc2)N(C)C(=O)[C@H](CC(C)C)NC(=O)[C@H](CCc2ccc(C)cc2)NC(=O)CN(C)C(=O)[C@H](Cc2ccc(Cl)cc2)N(C)C(=O)CN(C)C(=O)CN(C)C1=O` [Compound 398] ([NMeA]I[Sar][Sar][NMePhe(4-Cl)][Sar][X33]L[NMeF][NMeL]D-Pyrrolidide; lactam N-11), for which the IC50 is 120 nM. For `CC[C@H](C)[C@@H]1NC(=O)[C@H](CC(C)C)N(C)C(=O)C[C@@H](C)NC(=O)[C@H](CC(C)C)N(C)C(=O)C2(CCCC2)NC(=O)[C@@H]2CCCN2C(=O)[C@H](CCc2ccc(C(F)(F)F)c(F)c2)NC(=O)CN(C)C(=O)[C@H](CC2CCCCC2)N(C)C(=O)CN(C)C(=O)CN(C)C1=O` [Compound 402] (cyclo([Ac5c][NMeL][d(β3hA)][NMeL]I[Sar][Sar][NMeCha][Sar][hPhe(3-F,4-CF3)]P)) the value was 26 nM. For the compound `CCCN1CC(=O)N(C)[C@@H](CC2CCCCC2)C(=O)N(C)CC(=O)N[C@@H](CCc2ccc(C(F)(F)F)c(Cl)c2)C(=O)N2CCC[C@H]2C(=O)NC2(CCCC2)C(=O)N(C)[C@@H](C(C)C)C(=O)N[C@H](C)CC(=O)N(C)[C@@H](CC(C)C)C(=O)N[C@@H]([C@@H](C)CC)C(=O)N(C)CC1=O` [Compound 405] (cyclo([Ac5c][NMeV][d(β3hA)][NMeL]I[Sar][NPrGly][NMeCha][Sar][hPhe(3-Cl-4-CF3)]P)), the half-maximal inhibitory concentration (IC50) came to 270 nM. For `CC[C@H](C)[C@@H]1NC(=O)[C@H](CC(C)C)N(C)C(=O)C[C@@H](C)N(C)C(=O)[C@H](CC(C)C)N(C)C(=O)C2(CCOCC2)NC(=O)[C@@H]2CCCN2C(=O)[C@H](CCc2ccc(C(F)(F)F)c(F)c2)NC(=O)CN(C)C(=O)[C@H](CC2CCCCC2)N(C)C(=O)CN(C)C(=O)CN(C)C1=O` [Compound 407] (cyclo(I[Sar][Sar][NMeCha][Sar][hPhe(3-F,4-CF3)]P[Thp][NMeL][NMedβ3hAla][NMeL])) the value was 39 nM. For `CC[C@H](C)[C@@H]1NC(=O)[C@H](C)N(C)C(=O)C[C@@H](C)NC(=O)[C@H](C2CCCC2)N(C)C(=O)C2(CCCC2)NC(=O)[C@@H]2CCCN2C(=O)[C@H](CCc2ccc(C(F)(F)F)c(Cl)c2)NC(=O)[C@@H](C)N(C)C(=O)[C@H](CC)N(C)C(=O)CN(C)C(=O)CN(C)C1=O` [Compound 413] (cyclo([Ac5c][NMeGly(cPent)][d(β3hA)][NMeA]I[Sar][Sar][NMeAbu][dNMeA][hPhe(3-Cl-4-CF3)]P)) the value was 50 nM.

For the compound `CC[C@H](C)[C@@H]1NC(=O)[C@H](CC(C)C)N(C)C(=O)C[C@@H](C)NC(=O)[C@H](CC(C)C)N(C)C(=O)C2(CCCC2)NC(=O)[C@@H]2CCCN2C(=O)[C@H](CCc2ccc(C(F)(F)F)cc2)NC(=O)CN(C)C(=O)[C@H](CC2CCCCC2)N(C)C(=O)CN(C)C(=O)CN(C)C1=O` [Compound 414] (cyclo([Ac5c][NMeL][d(β3hA)][NMeL]I[Sar][Sar][NMeCha][Sar][hPhe(4-CF3)]P)), the IC50 worked out at 110 nM.
